Data reported in patent publication US9896457B2, “Microbial product having antifungal activity” (OP BIO FACTORY CO., LTD., priority 2013, dated 2018).

Assays:
Candida spp. = assay: Antifungal agent sensitivity test, MIC by trace liquid dilution method (yeast-like fungi FP 'Eiken'); assay type: cell-based; details: numeric MIC (μg/mL) only in FIG. 2
Experimental: (§1) Minimum inhibitory concentration (MIC) was measured by the trace liquid dilution method. The measurement was performed using yeast-like fungi FP ‘Eiken’ (Eiken Chemical Co., Ltd.) and according to the manual of the product.

Aspergillus spp. = assay: as above; assay type: cell-based; details: numeric MIC (μg/mL) only in FIG. 2
Experimental: as §1

## CC=C(Cc1ccccc1)C12CC(O)CCN1O2 (centres unmarked)
Candida spp.
  antifungal activity (MIC), result in words: good activity
Aspergillus spp.
  antifungal activity (MIC), result in words: good activity
